Assay results taken from article PMC5522078, “Discovery and characterization of small molecules targeting the DNA-binding ETS domain of ERG in prostate cancer” (Oncotarget, 2017).

Key:
ERG [1] = molecular target: T1, ERG (Homo sapiens, UniProt P11308); assay: Dual reporter luciferase assay (pETS-luc) in PNT1B-ERG cells; type: cell-based; conditions: 0.1-100 μM, 48 h treatment
T1 construct: expressed in transfected cells; host or cells: PNT1B-ERG (immortalized prostatic epithelial PNT1B cells stably overexpressing ERG)
T1 sequence (P11308 1-479): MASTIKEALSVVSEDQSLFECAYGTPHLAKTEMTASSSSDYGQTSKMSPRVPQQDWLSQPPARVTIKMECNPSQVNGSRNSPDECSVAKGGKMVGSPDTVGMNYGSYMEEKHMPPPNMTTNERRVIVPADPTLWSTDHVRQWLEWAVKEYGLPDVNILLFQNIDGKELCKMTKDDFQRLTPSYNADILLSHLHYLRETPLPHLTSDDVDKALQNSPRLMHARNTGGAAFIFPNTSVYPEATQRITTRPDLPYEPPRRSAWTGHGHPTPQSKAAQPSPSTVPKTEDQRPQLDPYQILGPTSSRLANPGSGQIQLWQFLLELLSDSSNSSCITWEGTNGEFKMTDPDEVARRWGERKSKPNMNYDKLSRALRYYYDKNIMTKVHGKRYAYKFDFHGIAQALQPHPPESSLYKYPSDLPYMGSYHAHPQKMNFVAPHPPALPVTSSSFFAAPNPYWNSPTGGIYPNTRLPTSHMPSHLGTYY
Description: (§1) All of the compounds selected from the virtual screening were tested in a luciferase-based ERG-responsive reporter assay, using two ERG-overexpressing cell lines, VCaP and PNT1B-ERG, previously developed in house. […] Data were normalized first to Renilla luciferase and then to the DMSO-media control on each plate, unless otherwise stated. Initial hit compounds were identified as those with an average normalized luciferase reading (firefly luciferase/Renilla luciferase readings) that is 60% or less of the average normalized luciferase reading of the DMSO-media control (i.e. 40% or more reduction of luciferase activity) at 10 μM. Representative example of raw Renilla luciferase readings presented in Supplementary Figure 9B. The luciferase assays were repeated for each lead compound under multiple concentrations (0.1 to 100 μM) to establish a dose-dependent response and an IC50 value. AR reporter assay was performed as previously described.

ERG [2] = molecular target: T2, ERG (Homo sapiens, UniProt P11308); assay: Dual reporter luciferase assay (pETS-luc) in VCaP cells; type: cell-based; conditions: 0.1-100 μM, 48 h treatment
T2 construct: VCaP (endogenous overexpression); endogenous in cells; host or cells: VCaP (whole cells for A2 and A17; nuclear extract for A16)
T2 sequence (P11308 33-479 limits assumed): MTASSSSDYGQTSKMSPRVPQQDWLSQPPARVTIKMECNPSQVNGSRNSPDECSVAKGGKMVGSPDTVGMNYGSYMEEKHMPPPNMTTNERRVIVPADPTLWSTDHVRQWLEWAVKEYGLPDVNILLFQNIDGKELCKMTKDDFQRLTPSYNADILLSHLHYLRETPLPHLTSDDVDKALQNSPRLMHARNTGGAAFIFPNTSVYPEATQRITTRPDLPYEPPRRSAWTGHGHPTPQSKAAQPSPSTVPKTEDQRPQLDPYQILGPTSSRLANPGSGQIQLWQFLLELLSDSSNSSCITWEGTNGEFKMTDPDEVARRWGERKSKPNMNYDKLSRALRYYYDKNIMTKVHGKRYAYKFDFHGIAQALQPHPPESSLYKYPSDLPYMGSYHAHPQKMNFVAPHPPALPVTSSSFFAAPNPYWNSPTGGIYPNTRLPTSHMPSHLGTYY
Description: as §1

PNT1B-ERG cells [3] = assay: MTS cell viability assay, PNT1B-ERG; type: cell-based, human; conditions: 72 h
Description: (§2) 3-(4,5-dimethylthiazol-2-yl)-5-(3-carboxymethoxyp henyl)-2-(4-sulfophenyl)-2H-tetrazolium, inner salt (MTS). Cells were seeded at a density of 3000 cells per well (except VCaP at 20,000/well) in 100 μL of appropriate media in 96 well culture dishes. Twenty four hours later, 100 μL of medium containing vehicle control or compounds. Each treatment was prepared in triplicate. After a 72 h treatment, cellular viability was assessed using CellTiter 96 ® Aqueous One Solution Cell Proliferation Assay reagent (Promega) according to the manufacturer's instructions. Values were normalized to the DMSO control.

PC3 cells = assay: MTS cell viability assay, PC3; type: cell-based, human; conditions: 72 h
Description: as §2

ERG-ETS/DNA complex = molecular target: T3, ERG-ETS/DNA complex (Homo sapiens, UniProt P11308); assay: EMSA competition, purified ERG-ETS domain and dsDNA; type: binding; conditions: for Disruption of recombinant ERG-ETS/DNA complex formation: up to 8 mM
T3 construct: A pET28a plasmid encoding residues 307–400 of the ERG-ETS domain; His6 (cleaved yes); made in house; host or cells: E. coli BL21 (λDE3)
T3 sequence (P11308 307-400): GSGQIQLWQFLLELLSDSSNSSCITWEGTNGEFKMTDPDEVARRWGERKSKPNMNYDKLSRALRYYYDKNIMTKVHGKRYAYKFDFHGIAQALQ
Description: To prepare the probe for the gel shift assay, equal amounts (200 nM) of Alexa-488 fluorophore-labeled DNAs ([NT] and its complement) were mixed, heated to 95°C for 30 minutes, and then slowly cooled to 25°C in several hours. […] The gel was scanned with Typhoon 9200 Imager equipped with blue laser to excite at 490 nm and fluorescence was measured at 520 nm. The scanned image was analyzed with Image J [48]. […] The result of this initial study was used to set the molar ratio of ERG-ETS domain:DNA in subsequent competition assays with VPC-18005. […] The data were fit to the equation for competitive binding, fb,i = [ERG]/([ERG] + KD{1 + [VPC-18005]i/KI}), where KI is the inhibitor dissociation constant and the fraction bound, fb,i, was calculated the intensity of the bound DNA band at each titration point relative to that without added VPC-18005. A control experiment was carried out by titrating with equivalent quantities of DMSO.

PNT1B-ERG cells [4] = assay: Real time cell migration (xCELLigence), PNT1B cells; type: cell-based, human; conditions: 5 μM
Description: Cell migration was monitored using CIM-16 migration plates via the xCELLigence platform (ACEA). FBS-supplemented media (160 μL) was added to the lower chamber of the plate and incubated at RT for 30 min. The upper chamber was then mounted and 30 μL of serum free media (SFM) was added to each well and left to equilibrate in the incubator for 1 h at 37°C. After the incubation, a background reading was taken for each well. […] Real time readings of cell index values were recorded initially every 5 min until the end of the experiment (48 hr).

PNT1B-ERG spheroids = assay: 3D spheroid invasion assay; type: cell-based, human; conditions: compared to vehicle control
Description: 3D Spheroid BME Cell Invasion Assay (Trevigen) was performed as per manufacturer's instructions. […] Spheroids were then incubated at 37°C for 3 to 7 days, and photographed using Zeiss AxioObserver Z1 microscope in each well on the day of invasion mix addition and every two days following. Spheroids were retreated with 50 μL of vehicle control or compound after 72 hr.

zebrafish embryos = assay: Compound toxicity to zebrafish embryos; type: in vivo

| Compound | IC50 (ERG [1]) | IC50 (ERG [2]) | Effect on cell viability (MTS), PNT1B-ERG (PNT1B-ERG cells [3]; 0.2–25 μM) | Effect on cell viability (MTS), PC3 (PC3 cells; 0.2–25 μM) | Ki (ERG-ETS/DNA complex; 4 nM ERG-ETS domain, 1 nM dsDNA, read-out: KI, disruption of ERG-ETS/DNA complex formation) | Disruption of recombinant ERG-ETS/DNA complex formation (ERG-ETS/DNA complex) | Rate of migration of PNT1B-ERG cells (PNT1B-ERG cells [4]; 24 h exposure, relative to vehicle) | Rate of spheroid invasion between day 2 and 6 (PNT1B-ERG spheroids) | Concentration at which embryos remained viable (zebrafish embryos; 72 h) | Impact on cell cycle distribution (VCaP cells) | Doses with inhibition of cell viability (MTS), PNT1B-ERG (PNT1B-ERG cells [3]) | Doses with inhibition of cell viability (MTS), PC3 (PC3 cells) | Cytotoxicity in migration assay (PNT1B-ERG cells [4]; PNT1B-MOCK and PNT1B-ERG cells) | Concentrations at which embryos exhibited toxicity (zebrafish embryos) | G0–G1 phase population (VCaP cells; 5 and 10 μM) |
| --- | --- | --- | --- | --- | --- | --- | --- | --- | --- | --- | --- | --- | --- | --- | --- |
| CC(C)c1ccc(C=N/N=C2\NC(=O)[C@@H](CC(=O)O)S2)cc1 (stereo in doubt) [VPC-18005, 2-((Z)-2-(((Z)-4-isopropylbenzylidene)hydrazono)-4-oxothiazolidin-5-yl)acetic acid] | 3 µM | 6 µM | did not decrease viability | did not decrease viability | ~250 µM | dose-dependent disruption | significantly reduced | significantly reduced | up to 50 μM | did not impact cell cycle distribution |  |  |  |  |  |
| COc1ccc(C(=O)CC2(O)C(=O)Nc3c(Cl)ccc(Cl)c32)cc1 (stereo not shown) [YK-4-279, reference compound] | 5 µM | 16 µM |  |  |  | did not disrupt binding |  | significantly reduced |  |  | ≥ 5 µM | ≥ 5 µM | cytotoxicity in both cell lines | > 10 µM | concomitantly reduced |
